Counter-ions that a name gives are not always drawn. Like-named read-outs stand apart in the source and are kept apart here.
How the values were obtained:
[1] = target: T1, hNET (Homo sapiens, UniProt P23975); test: hNET neurotransmitter uptake assay (3H-NE); assay type: cell-based; details: 3H-NE 50 nM, HEK-293 hNET cells; read-out: norepinephrine reuptake inhibition pIC50 (converted)
T1 construct: expressed in transfected cells; host or cells: HEK-293 derived cell line, stably transfected
Procedure: (§1) Neurotransmitter uptake assays were used to measure inhibition of ^3H-serotonin (^3H-5-HT), ^3H-norepinephrine (^3H-NE), and ^3H-dopamine (^3H-DA) uptake into cells expressing the respective transporter (hSERT, hNET or hDAT) in order to determine the pIC50 values of test compounds at the transporters.
(§2) HEK-293 derived cell lines stably-transfected with hSERT, hNET, or hDAT, respectively, were grown in DMEM medium supplemented with 10% dialyzed FBS (for hSERT) or FBS (for hNET and hDAT), 100 μg/ml penicillin, 100 μg/ml streptomycin, 2 mM L-glutamine and 250 μg/ml of the aminoglycoside antibiotic G418 (for hSERT and hNET) or 800 ug/ml (for hDAT), in a 5% CO2 humidified incubator at 37° C. When cultures reached 80% confluence, the cells were washed thoroughly in PBS (without Ca^2+ and Mg^2+) and lifted with 5 mM EDTA in PBS. […]
(§3) Neurotransmitter uptake assays were performed in a 96-well assay plate in a total volume of 400 μl assay buffer (Krebs-Ringer bicarbonate buffer containing HEPES (10 mM), CaCl2 (2.2 mM), ascorbic acid (200 μM) and pargyline (200 μM), pH 7.4) with 1.5×10^4 and 2.5×10^4 cells, for SERT, NET, and DAT, respectively. […] Non-specific neurotransmitter uptake was determined in the presence of 2.5 μM duloxetine, 2.5 μM desipramine, or 10 uM GBR-12909 (each in Dilution Buffer) for the hSERT, hNET, or hDAT assays, respectively. […]

[2] = target: T1, hNET; test: hNET membrane radioligand binding assay (3H-nisoxetine); details: 1.0 nM 3H-nisoxetine, HEK-293 hNET membranes; read-out: NET pKi (converted)
Procedure: (§4) Membrane radioligand binding assays were used to measure inhibition of labeled ligand (^3H-citalopram or ^3H-nisoxetine or ^3H-WIN35428) binding to membranes prepared from cells expressing the respective human recombinant transporter (hSERT or hNET or hDAT) in order to determine the pKi values of test compounds at the transporters.
(§5) Recombinant human embryonic kidney (HEK-293) derived cell lines stably transfected with hSERT or hNET, respectively, were grown in Dulbecco's Modified Eagle's Medium (DMEM) medium supplemented with 10% dialyzed FBS (for hSERT) or FBS (for hNET), 100 μg/ml penicillin, 100 μg/ml streptomycin, 2 mM L-glutamine and 250 μg/ml of the aminoglycoside antibiotic G418, in a 5% CO2 humidified incubator at 37° C. When cultures reached 80% confluence, the cells were washed thoroughly in PBS (without Ca^2+ and Mg^2+) and lifted with 5 mM EDTA in PBS. […] Protein concentration of the membrane suspension was determined using a Bio-Rad Bradford Protein Assay kit. […]
(§6) Stock solutions (10 mM in DMSO) of test compound were prepared and serial dilutions made using Dilution Buffer (50 mM Tris-HCl, 120 mM NaCl, 5 mM KCl, pH 7.4, 0.1% BSA, 400 μM ascorbic acid). Non-specific radioligand binding was determined in the presence of 1 μM duloxetine, 1 μM desipramine or 10 μM GBR12909 (each in Dilution Buffer) for the hSERT, hNET or hDAT assays, respectively. […]

[3] = target: T2, hSERT (Homo sapiens, UniProt P31645); test: hSERT membrane radioligand binding assay (3H-citalopram); details: 1.0 nM 3H-citalopram, HEK-293 hSERT membranes; read-out: SERT pKi (converted)
T2 construct: expressed in transfected cells; host or cells: HEK-293 derived cell line, stably transfected
T2 sequence (P31645 whole entry): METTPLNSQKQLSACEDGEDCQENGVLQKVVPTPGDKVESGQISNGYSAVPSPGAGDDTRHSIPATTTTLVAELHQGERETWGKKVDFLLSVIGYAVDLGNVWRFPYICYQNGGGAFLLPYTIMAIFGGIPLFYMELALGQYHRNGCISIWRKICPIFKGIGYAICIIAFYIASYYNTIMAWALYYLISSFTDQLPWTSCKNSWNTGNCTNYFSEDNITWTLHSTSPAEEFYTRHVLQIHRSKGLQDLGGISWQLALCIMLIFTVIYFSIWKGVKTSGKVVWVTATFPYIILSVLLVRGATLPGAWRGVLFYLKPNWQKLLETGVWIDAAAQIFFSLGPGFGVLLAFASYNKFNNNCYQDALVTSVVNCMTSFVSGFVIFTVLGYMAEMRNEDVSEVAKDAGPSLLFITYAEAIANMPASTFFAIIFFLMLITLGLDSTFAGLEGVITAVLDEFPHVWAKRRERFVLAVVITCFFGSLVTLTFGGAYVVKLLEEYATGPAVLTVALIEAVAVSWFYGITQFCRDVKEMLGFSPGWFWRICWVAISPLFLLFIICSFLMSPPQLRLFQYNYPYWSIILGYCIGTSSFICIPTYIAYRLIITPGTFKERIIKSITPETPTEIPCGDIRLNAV
Procedure: as §4, §5, §6

[4] = target: T2, hSERT; test: hSERT neurotransmitter uptake assay (3H-5-HT); assay type: cell-based; details: 3H-5-HT 20 nM, HEK-293 hSERT cells; read-out: serotonin reuptake inhibition pIC50 (converted)
Procedure: as §1, §2, §3

[5] = Deliquescence on exposure to atmospheric moisture; assay type: physicochemical; details: exposed to atmospheric moisture
[6] = Aqueous solubility; assay type: physicochemical; details: read-out: SOLUBILITY CONCENTRATION
Source text: The crystalline hydrochloride salt of the invention has very good aqueous solubility in a wide pH range: […]

[7] = Thermal analysis (DSC, TGA); assay type: physicochemical
Procedure: Differential scanning calorimetry (DSC) was performed using a TA Instruments
Model Q-100 module with a Thermal Analyst controller. Data were collected and analyzed using TA Instruments Thermal Solutions software. A 1.22 mg sample of the crystalline hydrochloride salt of the invention was accurately weighed into a covered aluminum pan. After a 5 minute isothermal equilibration period at 22° C., the sample was heated using a linear heating ramp of 10° C./min from 22° C. to 250° C.

[8] = Solution stability (HPLC peak area); assay type: physicochemical; details: for Change in HPLC Peak Area: 10 μm/mL, 3 days at 40° C.
[9] = Dynamic moisture sorption (DMS) assessment; assay type: physicochemical; details: exposed to up to 85% relative humidity, 25° C.
Procedure: A dynamic moisture sorption (DMS) assessment (also known as a moisture sorption-desorption profile) was performed for the crystalline hydrochloride salt of the invention using a VTI atmospheric microbalance, SGA-100 system (VTI Corp., Hialeah, Fla. 33016). A sample size of approximately 2.73 mg was used and the humidity was set at the ambient value at the start of the analysis. The DMS analysis consisted of a scan rate of 5% relative humidity/step over the full humidity range of 2% relative humidity to 90% relative humidity. The DMS run was performed isothermally at 25° C.

T1 sequence (P23975 whole entry): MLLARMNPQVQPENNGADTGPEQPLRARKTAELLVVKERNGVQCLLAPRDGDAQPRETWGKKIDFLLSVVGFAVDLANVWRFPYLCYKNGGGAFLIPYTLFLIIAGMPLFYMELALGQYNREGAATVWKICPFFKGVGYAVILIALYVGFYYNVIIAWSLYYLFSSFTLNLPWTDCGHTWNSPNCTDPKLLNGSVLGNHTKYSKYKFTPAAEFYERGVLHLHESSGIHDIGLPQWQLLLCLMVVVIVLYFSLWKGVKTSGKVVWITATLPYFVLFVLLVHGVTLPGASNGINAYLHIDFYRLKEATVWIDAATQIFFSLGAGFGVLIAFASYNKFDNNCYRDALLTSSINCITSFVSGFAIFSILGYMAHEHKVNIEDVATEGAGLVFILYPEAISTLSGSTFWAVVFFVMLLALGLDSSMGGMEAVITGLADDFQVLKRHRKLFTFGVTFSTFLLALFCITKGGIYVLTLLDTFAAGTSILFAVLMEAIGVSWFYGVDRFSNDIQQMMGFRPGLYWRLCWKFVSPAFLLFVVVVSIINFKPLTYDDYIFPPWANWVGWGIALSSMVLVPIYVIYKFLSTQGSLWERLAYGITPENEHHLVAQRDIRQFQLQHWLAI

| SMILES | IC50 [1] | Ki [2] | Ki [3] | IC50 [4] | deliquescence [5] | solubility ([6]; aqueous HCl, simulated gastric fluid, HCl pH 2.0) | solubility ([6]; phosphate buffer, aqueous buffer, 50 mM phosphate-buffered pH 7.4) | solubility ([6]; un-buffered water) | thermal stability (DSC) ([7]; heating 10° C./min from 22° C. to 250° C.) | weight loss (TGA) ([7]; room temperature to 200° C.) | Change in HPLC Peak Area ([8]; 50 mM citric acid pH 2.2) | Change in HPLC Peak Area ([8]; 50 mM phosphate-buffered pH 7.4) | stability at room temperature ([8]; room temperature, 30 days, concentrations of 1 mg/mL and 10 mg/mL) | weight gain [9] |
| --- | --- | --- | --- | --- | --- | --- | --- | --- | --- | --- | --- | --- | --- | --- |
| CC(C)[C@H](Oc1ccc(Cl)cc1)[C@H]1CCNC1 [Example 1 (TFA salt), (S)-3-[(S)-1-(4-Chlorophenoxy)-2-methylpropyl]pyrrolidine] | ≤ 10 nM | ≤ 10 nM | ≤ 10 nM | ≤ 10 nM |  |  |  |  |  |  |  |  |  |  |
| CC(C)[C@H](Oc1ccc(Cl)cc1)[C@H]1CCNC1 [Example 1, Crystalline Hydrochloride Salt of (S)-3-[(S)-1-(4-Chlorophenoxy)-2-methylpropyl]pyrrolidine] |  |  |  |  | not to be deliquescent | > 10000 µg/mL | > 10000 µg/mL | > 10000 µg/mL | no significant thermal decomposition below about 200 °C | did not lose any significant amount of weight | 100.5% | 100.0% | no degradation | less than 1.0% |

— patent US9120746B2, “Crystalline form of a 3-phenoxymethylpyrrolidine compound” (Theravance Biopharma R&D IP, LLC, priority 2010, dated 2015)
